{
  "source": "patent US5935990A",
  "about": "“Substituted pyrrolyl compounds for the treatment of inflammation” (G.D. Searle & Co., priority 1997, dated 1999)",
  "note": "pIC50: −log10 of the molar value.",
  "data": [
    {"tested_on": "rat paw edema", "assay": "Rat Carrageenan Foot Pad Edema Test", "format": "in vivo, rat (Male Sprague-Dawley)", "settings": "oral, 3 h after carrageenan injection", "procedure": "The carrageenan foot edema test was performed with materials, reagents and procedures essentially as described by Winter, et al., (Proc. Soc. Exp. Biol. Med., 111, 544 (1962)). Male Sprague-Dawley rats were selected in each group so that the average body weight was as close as possible. Rats were fasted with free access to water for over sixteen hours prior to the test. The rats were dosed orally (1 mL) with compounds suspended in vehicle containing 0.5% methylcellulose and 0.025% surfactant, or with vehicle alone. One hour later a subplantar injection of 0.1 mL of 1% solution of carrageenan/sterile 0.9% saline was administered and the volume of the injected foot was measured with a displacement plethysmometer connected to a pressure transducer with a digital indicator. Three hours after the injection of the carrageenan, the volume of the foot was again measured. The average foot swelling in a group of drug-treated animals was compared with that of a group of placebo-treated animals and the percentage inhibition of edema was determined (Otterness and Bliven, Laboratory Models for Testing NSAIDs, in Non-steroidal Anti-Inflammatory Drugs, (J. Lombardino, ed. 1985)).", "units": {"RAT PAW EDEMA % Inhibition @ 30mg/kg body weight": "%"}, "values": [
      {"smiles": "CS(=O)(=O)c1ccc(-n2cccc2-c2ccc(F)cc2)cc1", "note": "[Example 8, 2-(4-Fluorophenyl)--1-[4-(methylsulfonyl)phenyl]-1H-pyrrole]", "RAT PAW EDEMA % Inhibition @ 30mg/kg body weight": 56}
    ]},
    {"tested_on": "not listed separately", "assay": "Analgesia (Table I)", "format": "in vivo", "settings": "not given", "units": {"ANALGESIA % Inhibition @ 30mg/kg body weight": "%"}, "values": [
      {"smiles": "CS(=O)(=O)c1ccc(-n2cccc2-c2ccc(F)cc2)cc1", "note": "[Example 8, 2-(4-Fluorophenyl)--1-[4-(methylsulfonyl)phenyl]-1H-pyrrole]", "ANALGESIA % Inhibition @ 30mg/kg body weight": 47}
    ]},
    {"tested_on": "COX-1", "assay": "Assay for COX-1 activity in vitro (PGE2 formed, ELISA)", "format": "biochemical, human or murine", "settings": "recombinant COX-1 from SF9 insect cells, arachidonic acid 10 μM, pH 8.0, 10-20 min pre-incubation", "procedure": "The COX-2 inhibition activity of the compounds of this invention illustrated in the Examples was determined by the following methods.\na. Preparation of recombinant COX baculoviruses\nRecombinant baculoviruses were isolated by transfecting 4 μg of baculovirus transfer vector DNA into SF9 insect cells (2×10^8) along with 200 ng of linearized baculovirus plasmid DNA by the calcium phosphate method. See M. D. Summers and G. E. Smith, A Manual of Methods for Baculovirus Vectors and Insect Cell Culture Procedures, Texas Agric. Exp. Station Bull. […] Recombinant viruses were purified by three rounds of plaque purification and high titer (10^7-10^8 pfu/mL) stocks of virus were prepared. For large scale production, SF9 insect cells were infected in 10 liter fermentors (0.5×10^6 /mL) with the recombinant baculovirus stock such that the multiplicity of infection was 0.1. […] The homogenate was centrifuged at 10,000×G for 30 minutes, and the resultant supernatant was stored at -80° C. before being assayed for COX activity.\nCOX activity was assayed as PGE2 formed/pg protein/time using an ELISA to detect the prostaglandin released. CHAPS-solubilized insect cell membranes containing the appropriate COX enzyme were incubated in a potassium phosphate buffer (50 mM, pH 8.0) containing epinephrine, phenol, and heme with the addition of arachidonic acid (10 μM). […] The PGE2 formed was measured by standard ELISA technology (Cayman Chemical).", "values": [
      {"smiles": "Cc1ccc(-c2ccc(S(C)(=O)=O)cc2)n1-c1ccc(F)cc1", "note": "[Example 1, 1-(4-Fluorophenyl)-2-methyl-5-[4-(methylsulfonyl)phenyl]-1H-pyrrole]", "pIC50": "< 4.00"},
      {"smiles": "NS(=O)(=O)c1ccc(-n2cccc2-c2ccc(F)cc2)cc1", "note": "[Example 9, 4-[2-(4-Fluorophenyl)-1H-pyrrol-1-yl]benzenesulfonamide]", "pIC50": 4.98},
      {"smiles": "Cc1c(COc2cccc(Cl)c2)cc(-c2ccc(S(C)(=O)=O)cc2)n1-c1ccc(F)cc1", "note": "[Example 25, 3-[(3-Chlorophenoxy)methyl]-1-(4-fluorophenyl)-2-methyl-5-[4-(methylsulfonyl)phenyl]-1H-pyrrole]", "pIC50": "< 4.00"},
      {"smiles": "Cc1c(S(=O)(=O)C(F)(F)F)cc(-c2ccc(S(C)(=O)=O)cc2)n1-c1ccc(F)cc1", "note": "[Example 16, 1-(4-Fluorophenyl)-2-methyl-5-[4-(methylsulfonyl)phenyl]-3-[(trifluoromethyl)sulfonyl]-1H-pyrrole]", "pIC50": "< 4.00"},
      {"smiles": "CS(=O)(=O)c1ccc(-c2cccn2-c2ccc(F)cc2)cc1", "note": "[Example 10, 1-(4-Fluorophenyl)-2-[4-(methylsulfonyl)phenyl]-1H-pyrrole]", "pIC50": "< 4.00"},
      {"smiles": "Cc1c(COc2ccc(Cl)cc2)cc(-c2ccc(S(C)(=O)=O)cc2)n1-c1ccc(F)cc1", "note": "[Example 26, 3-[(4-Chlorophenoxy)methyl]-1-(4-fluorophenyl)-2-methyl-5-[4-(methylsulfonyl)phenyl]-1H-pyrrole]", "pIC50": "< 4.00"},
      {"smiles": "Cc1ccc(-c2ccc(S(C)(=O)=O)cc2)n1C1CCCCC1", "note": "[Example 7, 1-Cyclohexyl-2-methyl-5-[4-(methylsulfonyl)phenyl]-1H-pyrrole]", "pIC50": 4.20}
    ]}
  ]
}
